Source: US12534493B2, “Bridged nucleoside and nucleotide” (Liid Pharmaceuticals, Inc., priority 2020, dated 2026)

How the values were obtained:
Format in all cases: binding
[1] = tested on: single-stranded RNA:5′-r(ACGAGANCAUCC)-3′, N = U; experiment: Tm measurement with single-stranded RNA (base sequence identifying ability), N = U; conditions: mismatch RNA N = U; for ΔTm (N = U), in parentheses: difference from N = A; for Tm (N = U): 10 mM sodium phosphate buffer, 200 mM NaCl
Procedure: (§1) A sample solution ([…]) with final concentrations of 10 mM phosphate buffer (pH7.0), 200 mM sodium chloride, and 2.5 μM each oligonucleotide was immersed in boiling water and slowly cooled to room temperature. The sample solution was cooled to 20° C., and the measurement was started. The temperature was raised to 90° C. at a rate of 0.5° C. per minute, and the absorbance at 260 nm was plotted at intervals of 0.5° C. All Tm values were calculated by the midline method and the average of three independent measurement results was taken.
(§2) conditions: 10 mM sodium phosphate buffer (pH7.0) containing 200 mM NaCl, […] of each strand

[2] = tested on: single-stranded RNA:5′-r(ACGAGANCAUCC)-3′, N = C; experiment: Tm measurement with single-stranded RNA (base sequence identifying ability), N = C; conditions: mismatch RNA N = C; for ΔTm (N = C), in parentheses: difference from N = A; for Tm (N = C): 10 mM sodium phosphate buffer, 200 mM NaCl
Procedure: as §1, §2

[3] = tested on: single-stranded DNA: 5′-d(ACGAGAACATCC)-3′ (SEQ ID NO: 12); experiment: Melting temperature (Tm) measurement, double strand-forming ability, with single-stranded DNA; conditions: duplex with single-stranded DNA SEQ ID NO: 12; for Tm: 10 mM phosphate buffer (pH7.0), 200 mM NaCl, 2.5 μM each oligonucleotide; for ΔTm/mod.: change per modification vs natural oligonucleotide
Procedure: as §1, §2

[4] = tested on: single-stranded RNA: 5′-r(ACGAGAACAUCC)-3′ (SEQ ID NO: 11); experiment: Melting temperature (Tm) measurement, double strand-forming ability, with single-stranded RNA; conditions: for Tm (N = A): Table 2, full-match RNA N = A, 10 mM sodium phosphate buffer; for Tm (N = A) / Tm: 200 mM NaCl; for Tm / ΔTm/mod.: duplex with single-stranded RNA SEQ ID NO: 11; for Tm: 10 mM phosphate buffer (pH7.0), 2.5 μM each oligonucleotide; for ΔTm/mod.: change per modification vs natural oligonucleotide
Procedure: as §1, §2

[5] = tested on: single-stranded RNA:5′-r(ACGAGANCAUCC)-3′, N = G; experiment: Tm measurement with single-stranded RNA (base sequence identifying ability), N = G; conditions: mismatch RNA N = G; for ΔTm (N = G), in parentheses: difference from N = A; for Tm (N = G): 10 mM sodium phosphate buffer, 200 mM NaCl
Procedure: as §1, §2

| Substance | ΔTm (N = U), in parentheses [1] | Tm (N = U) [1] [°C] | ΔTm (N = C), in parentheses [2] | Tm (N = C) [2] [°C] | Tm [3] [°C] | ΔTm/mod. [3] | Tm (N = A) [4] [°C] | Tm [4] [°C] | ΔTm/mod. [4] | ΔTm (N = G), in parentheses [5] | Tm (N = G) [5] [°C] |
| --- | --- | --- | --- | --- | --- | --- | --- | --- | --- | --- | --- |
| 5′-GGATGYTCTCGT-3′: modified oligonucleotide with one Y modification; Y not defined in the visible text (DNA GGATGTTCTCGT; Y modified nucleotide; misc_difference (6)..(6) LNA) | -13 º C. | 45 | -14 º C. | 44 | 54 | +3.0 °C | 58 | 58 | +6.0 °C | -5 º C. | 53 |
| 5′-GGATGTTCTCGT-3′: unmodified (natural) oligonucleotide, SEQ ID NO: 1 (unmodified DNA) | -12 º C. | 40 | -14 º C. | 38 | 51 |  | 52 | 52 |  | -4 º C. | 48 |
| 5′-GGATGZTCTCGT-3′: modified oligonucleotide with one Z modification; Z not defined in the visible text (DNA GGATGTTCTCGT; Z modified nucleotide; misc_difference (6)..(6) ENA) | -13 º C. | 45 | -15 º C. | 43 | 52 | +1.0 °C | 58 | 58 | +6.0 °C | -4 º C. | 54 |
| 5′-GGATGXTCTCGT-3′: modified oligonucleotide with one X modification; X not defined in the visible text (DNA GGATGTTCTCGT; DNA oligonucleotide with modified nucleotide X, X not given here, further chemistry not given here) | -14 º C. | 44 | -15 º C. | 43 | 53 | +2.0 °C | 58 | 58 | +6.0 °C | -5 º C. | 53 |
